Measured values as given in US20230135127A1, “COMPOSITIONS AND METHODS FOR DISEASE TREATMENT AND PREVENTION BY PH MODIFIERS AND/OR CELL PROLIFERATION INHIBITORS” (priority 2021, published 2023).
Where a name gives a salt, the structure may show the parent alone.

Experiments:
[1] = system: inflammatory cells in the BALF; assay: Asthma model: BALF cellularity and cell differentials; type: in vivo, Balb/c mice; conditions: i.t. HCl or HOAc, i.p. NaOH, every other day x3; day 3 after final challenge; saline 3.06×10^6
[2] = system: CD4 T cells in BALF and MLN; conditions: for Treg cells, % of total CD4 T cells, BALF: saline 7.46%; for Treg cells, % of total CD4 T cells, MLN: saline 11.80%
Method: (92, 93). […] For challenge, 2× concentrated solution was prepared by mixing 100 μg OVA protein and 1 μg […] peptide (Molecular Resources, Fort Collins, Colo., USA) in 30 μl saline per mouse, and kept on ice. Immediately before i.t. (intratracheal) injection the 30 μl 2×OVA solution was mixed with equal volume of 2× treatment solution (350 mM HOAc or HCl in saline) and instilled into the trachea of the mouse. The mice were challenged every other day for a total of 3 times.
The total mixture (60 μl) was instilled into the trachea of the mouse. The mice were treated every other day for a total of 3 times.
(§1) Cells were washed 3 times with PBS then stained with Zombie viability dyes at room temperature for 20 minutes. At the end of incubation, 10% volume of FBS was added to absorb excess Zombie dyes. After washes, the cells were stained with conjugated antibodies against surface antigens on ice. As specified in some experiments, the cells were subsequently stained with fluorochrome-conjugated Avidin. For Annexin V staining, cells were washed twice with plain PBS and once with Annexin V binging buffer (10 mM HEPES, pH7.4, 140 mM NaCl, 2.5 mM CaCl2)) after surface antigen staining, and incubated with fluorochrome-conjugated Annexin V in Annexin V binding buffer for 15 min at room temperature. The cells were washed twice in Annexin V binding buffer and resuspended in Annexin V binding buffer. 7-AAD was added to the cells before analyzed by flow cytometry. For Ki-67 and Foxp3 staining, lymphocytes (after Zombie dye and surface antigen staining) or tumor cells (without surface antigen staining) were fixed and permeabilized using Foxp3 staining buffer kit, then stained with PE-conjugated anti-mouse or human Ki-67 antibodies. (Biolegend, San Diego, Calif., USA). Stained and unstained cells were analyzed on Accuri C6 Flow Cytomer (Accuri Cytometers, Inc., Ann Arbor, Mich.), FACS Canto (BD Bioscience, San Jose, Calif., USA) and Attune™ cytometer (Invitrogen, Carlsbad, Calif.). Data analyses were carried out using FlowJo X.

primary lymph node cells = assay: In vitro treatment of primary lymph node cells in FBS, Ki-67; type: cell-based, mouse; conditions: 8.75 mM in FBS, 37° C., 5 hours
Method: For studies of the effects of pH modifier on proliferating cells, primary thymocytes or lymph node cells (4×10^6 cells/ml) were incubated in FBS comprising 10% of saline or 87.5 mM HCl, HOAc or NaOH prepared in saline in 37° C. water bath for 5 hours before analyses. The tumor cells (2×10^6 cells/ml) were incubated in FBS comprising 10% saline or 87.5 mM HCl, HOAc, or NaOH prepared in saline in 37° C. water bath for 3-5 hours.
as §1
Thus, to assess the full potentials of the pH modifiers, in vitro experiments were carried out, in which primary lymph node cells were treated with saline or saline plus the pH modifiers in 100% FBS in 37° C. water bath. Such in vitro culture systems were designed to be free of interference by pH buffering agents in common tissue culture system. The final concentration of the pH modifiers in the in vitro cultures was set to be 8.75 mM.

[3] = system: proliferating cells in the intestinal villi; assay: Ki-67 immunohistochemistry of intestines; type: in vivo, mice; conditions: i.p. x3, one day after third dose
Method: (97). Briefly, the tissue sections were first deparaffinized and rehydrated.
Mice were i.p. treated with saline or saline plus HCl, HOAc or NaOH every other day for a total of 3 doses. One day after the third dose, mice were sacrificed, and tissue sections of the intestines were analyzed by immunohistochemistry staining of Ki-67 with hematoxylin counter staining.

thymocytes = assay: Asthma model: thymus and thymocyte populations in vivo; parameters: species or system mice; conditions: for size of the thymus vs saline (gross examination): 3 days after final challenge and treatment; for percentage of Ki-67hi total thymocytes: saline 22.7%; for percentage of DP (CD4+CD8+) thymocyte subpopulation: saline 69.7%
Method: as §1
In the asthma model, OVA sensitized mice were challenged with OVA by i.t. injection every other day for 3 times. The mice received i.t. treatment with saline, HCl or HOAc at the same time as challenge, or i.p. treatment with NaOH 1 hour after the challenge. Thymuses were harvested 3 days after the final challenge and treatment. […] (FIG. 20a). […] The thymocytes can be divided into Ki-67 high, low and negative populations. (FIG. 20b).

primary thymocytes = assay: In vitro treatment of thymocytes in FBS, Ki-67; type: cell-based, mouse; conditions: FBS with saline plus modifier, vs saline cultures
[4] = system: C57BL/6 mice fed high fat diet; assay: High fat diet obesity model; type: in vivo; conditions: for average reduction of intestinal length vs saline: entire intestines; for intestines vs saline (gross examination): from end of stomach to anus; for sizes of fat pads vs saline: gross; for loss of body weight: i.p. every other day, four doses, 3 days after final treatments, saline about 3%; for fold reduction of fat/bodyweight ratio vs saline / average fat/bodyweight ratio: i.p. four doses; for average fat/bodyweight ratio: saline 0.135
Method: The obesity model was similar to those previously described. (95, 96). Female C57BL/6 mice of 4 weeks age were acclimated at CRADL for 1 week. After the acclimation, mice were switched to Gamma-irradiated high fat diet (Research Diets, New Brunswick, N.J., USA) (60% calories from fat). After 4 weeks of high fat diet, the mice were switched back to regular diet, and treated with i.p. injection of saline or saline plus HCl or HOAc. The bodyweight of each mouse was recorded before each treatment, and at the end of the experiment.
In the obesity model of Example 10, after fed with high fat diet for 4 weeks, mice were weighed to record total body weight. The mice were switched to regular diet and randomly divided into groups to receive i.p. treatments with saline or saline plus HCl, HOAc or NaOH. The mice continued to receive i.p. treatments on every other day for 3 additional doses. Four days after the final treatments, mice were sacrificed, their total body weights were measured, fat pads, and internal organs were collected, weighed, and analyzed.
Obesity was induced in C57BL/6 mice by feeding young (5 weeks old) female mice with high fat diet for 4 weeks. The mice were then switched to normal diet and randomly divided into groups to receive i.p. treatments with saline or saline plus HCl, HOAc or NaOH every other day for a total of four doses. The mice were analyzed 3 days after the final treatments.

[5] = system: inflammatory infiltration in the lung tissues; assay: Asthma model: H&E staining of lung tissue; conditions: i.t. HOAc or HCl; i.p. NaOH

Compound | total inflammatory cells in the BALF (average) [1] | Treg cells, % of total CD4 T cells, BALF ([2]; BALF) [%] | Treg cells, % of total CD4 T cells, MLN [2] [%] | Ki-67+ cells in live total lymphocytes, CD4, CD8 T cells and B cells (primary lymph node cells) | Ki-67+ cells in the intestinal villi (IHC) [3] | Ki-67 staining intensity in intestines [3] | size of the thymus vs saline (gross examination) (thymocytes) | percentage of Ki-67hi total thymocytes (thymocytes) [%] | percentage of DP (CD4+CD8+) thymocyte subpopulation (thymocytes) [%] | Ki-67+ cells in thymocytes after in vitro treatment (primary thymocytes) | average reduction of intestinal length vs saline [4] | intestines vs saline (gross examination) [4] | sizes of fat pads vs saline [4] | loss of body weight [4] | fold reduction of fat/bodyweight ratio vs saline [4] [fold] | average fat/bodyweight ratio [4] | inflammatory infiltration in the lungs (H&E) [5] | further results
CC(=O)O [HOAc, acetic acid] | 9.01×10^5 per mouse | 7.18 | 11.53 | almost eliminated all Ki-67^+ | more Ki-67^+ cells in the intestinal villi of saline- or NaOH-treated mice than the HCl- or HOAc-treated mice | stronger than those of the HCl- or HOAc-treated mice | dramatically smaller | 15.4 | 43.8 | almost no Ki-67^+ cells | ~12% | drastically shortened | much smaller | ~15% | 3 | 0.045 | diminished | decrease of total numbers of thymocytes vs saline (thymocytes; i.t. HOAc): ~90%
Cl [HCl, hydrochloric acid] | 1.07×10^6 per mouse | 4.45 | 9.12 | almost eliminated all Ki-67^+ | more Ki-67^+ cells in the intestinal villi of saline- or NaOH-treated mice than the HCl- or HOAc-treated mice | stronger than those of the HCl- or HOAc-treated mice | dramatically smaller |  |  | almost no Ki-67^+ cells | about 31% | drastically shortened | much smaller | about 25% | 5 | 0.027 | diminished | 
[Na+].[OH-] [NaOH, sodium hydroxide] | 2.18×10^6 per mouse | 6.97 | 11.46 |  | more Ki-67^+ cells in the intestinal villi of saline- or NaOH-treated mice than the HCl- or HOAc-treated mice | strongest | similar | 31.7 | 77.6 | higher percentages of Ki-67^+ cells | about 2% | only slightly shortened | somewhat reduced | about 17% |  | 0.106 | prominent in the perivascular areas, but not very noticeable in the peribronchial areas | CD44+ cells in Foxp3- CD4 T cells, BALF ([2]; BALF): 80.6%; percentages of Ki-67+ cells in CD4 T cells and B cells vs saline (primary lymph node cells): nearly tripled; percentages of Ki-67+ cells in total lymphocytes and CD8 T cells vs saline (primary lymph node cells): more than tripled; increase of total numbers of thymocytes vs saline (thymocytes; i.p. NaOH): about 28%
